# From article PMC12207590, “Substrate Specificity of the Organic Cation Transporters MATE1 and MATE2K and Functional Overlap with OCT1 and OCT2” (Journal of Medicinal Chemistry, 2025)
# Where two headings read alike, the source gives them in different places.
# Columns and labels:
# MATE1 [1] = molecular target: T1, MATE1 (Homo sapiens, UniProt Q96FL8); experiment: Uptake ratio in MATE1-overexpressing HEK293 cells vs empty vector (2.5 μM, 1 min, HPLC-MS/MS); assay type: cell-based; design: key to MATE1 substrate*: 1 = substrate; 0 = no substrate; details: for MATE1 substrate*: Table S4; for MATE1: uptake ratio MATE1-overexpressing vs empty-vector HEK293 cells, mean; for MATE1 ratio: fold uptake over empty vector; for MATE1 ratio in this study: Table S1
# T1 sequence (Q96FL8 1-570): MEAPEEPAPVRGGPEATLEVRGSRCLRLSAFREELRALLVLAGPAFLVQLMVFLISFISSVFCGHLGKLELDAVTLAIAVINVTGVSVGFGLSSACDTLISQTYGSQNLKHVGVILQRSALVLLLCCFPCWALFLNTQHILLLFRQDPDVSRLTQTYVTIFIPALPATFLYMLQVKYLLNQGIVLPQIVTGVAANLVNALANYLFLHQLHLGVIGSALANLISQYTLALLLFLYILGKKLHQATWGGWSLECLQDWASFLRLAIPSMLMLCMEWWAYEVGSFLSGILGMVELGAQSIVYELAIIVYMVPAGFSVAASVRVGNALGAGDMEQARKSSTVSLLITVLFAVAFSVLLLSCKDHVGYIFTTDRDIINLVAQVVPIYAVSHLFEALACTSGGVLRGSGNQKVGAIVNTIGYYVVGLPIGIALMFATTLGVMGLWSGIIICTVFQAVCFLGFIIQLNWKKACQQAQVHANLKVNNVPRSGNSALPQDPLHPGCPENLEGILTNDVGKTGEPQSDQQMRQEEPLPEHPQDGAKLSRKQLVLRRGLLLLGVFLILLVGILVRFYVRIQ
# MATE2K [2] = molecular target: T2, MATE2K (Homo sapiens, UniProt Q86VL8); experiment: Uptake ratio in MATE2K-overexpressing HEK293 cells vs empty vector (2.5 μM, 1 min, HPLC-MS/MS); assay type: cell-based; design: key to MATE2 substrate*: 1 = substrate; 0 = no substrate; details: for MATE2 substrate*: Table S4; for MATE2: uptake ratio MATE2K-overexpressing vs empty-vector HEK293 cells, mean; for MATE2K ratio: fold uptake over empty vector; for MATE2K ratio in this study: Table S1
# OCT1 = molecular target: T3, OCT1 (Homo sapiens, UniProt O15245); experiment: Uptake in OCT1-overexpressing HEK293 cells (substrate yes/no); assay type: cell-based; design: key: 1 = substrate; 0 = no substrate; details: Table S4
# T3 sequence (O15245 1-554): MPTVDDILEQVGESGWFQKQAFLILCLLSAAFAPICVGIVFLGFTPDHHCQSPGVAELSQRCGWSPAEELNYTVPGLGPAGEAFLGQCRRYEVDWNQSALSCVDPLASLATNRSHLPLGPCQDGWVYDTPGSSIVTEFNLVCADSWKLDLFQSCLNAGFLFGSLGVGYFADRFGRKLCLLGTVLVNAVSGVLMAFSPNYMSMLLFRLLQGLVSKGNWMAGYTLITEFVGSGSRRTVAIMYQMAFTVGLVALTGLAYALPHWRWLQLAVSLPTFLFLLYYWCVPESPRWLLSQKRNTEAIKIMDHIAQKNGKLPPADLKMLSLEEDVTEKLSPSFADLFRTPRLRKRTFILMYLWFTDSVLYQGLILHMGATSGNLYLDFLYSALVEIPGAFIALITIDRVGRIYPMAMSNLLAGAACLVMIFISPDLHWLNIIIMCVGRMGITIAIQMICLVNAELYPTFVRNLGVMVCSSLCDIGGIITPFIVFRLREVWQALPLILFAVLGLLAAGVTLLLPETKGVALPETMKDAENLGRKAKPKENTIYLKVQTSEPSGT
# Procedure: (§1) The cell lines were generated using the recombinant site-specific Flp-In^TM system as previously described. , All cell lines used in the transport experiments were cultured at 37 °C and 5% CO2 with Dulbecco’s Modified Eagle’s Medium (DMEM) supplemented with 10% (v/v) FBS and the antibiotics penicillin (100 U/mL) and streptomycin (100 μg/mL).
# OCT2 = molecular target: T4, OCT2 (Homo sapiens, UniProt O15244); experiment: Uptake in OCT2-overexpressing HEK293 cells (substrate yes/no); assay type: cell-based; design: key: 1 = substrate; 0 = no substrate; details: Table S4
# T4 sequence (O15244 1-555): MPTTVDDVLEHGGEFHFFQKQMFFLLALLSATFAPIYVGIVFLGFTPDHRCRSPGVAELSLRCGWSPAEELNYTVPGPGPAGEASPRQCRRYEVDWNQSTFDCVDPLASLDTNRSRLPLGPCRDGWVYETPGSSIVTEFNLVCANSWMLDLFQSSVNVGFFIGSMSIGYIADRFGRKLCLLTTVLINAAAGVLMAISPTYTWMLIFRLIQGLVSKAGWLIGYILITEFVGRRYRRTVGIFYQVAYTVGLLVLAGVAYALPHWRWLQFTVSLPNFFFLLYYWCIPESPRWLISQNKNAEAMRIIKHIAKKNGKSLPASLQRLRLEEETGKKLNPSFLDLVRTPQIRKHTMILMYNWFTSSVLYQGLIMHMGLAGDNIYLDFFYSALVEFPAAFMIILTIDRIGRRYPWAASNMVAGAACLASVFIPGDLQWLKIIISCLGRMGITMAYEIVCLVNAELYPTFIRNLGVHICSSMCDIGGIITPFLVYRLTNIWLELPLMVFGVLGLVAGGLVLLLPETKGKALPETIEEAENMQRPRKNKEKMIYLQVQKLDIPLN
# Procedure: as §1
# hCMEC [3] = experiment: TS DPH hCMEC (Table S2); assay type: cell-based, human; design: scale not given here; details: Table S2
# hCMEC [4] = experiment: TS MDAI hCMEC (Table S2); assay type: cell-based, human; design: scale not given here; details: Table S2
# [5] = tested on: MATE1, MATE2K, OCT1, OCT2; experiment: Substrate specificity and overlap among the four transporters (ratio cutoff 2); assay type: cell-based, human; details: transport ratio cutoff of 2
# MATE1 [6] = molecular target: T1, MATE1; experiment: Concentration-dependent uptake (Michaelis-Menten) via MATE1 in HEK293 cells; details: for Km: read-out: MATE1 KM
# MATE2K [7] = molecular target: T2, MATE2K; experiment: Concentration-dependent uptake (Michaelis-Menten) via MATE2K in HEK293 cells; details: for Km: read-out: MATE2K KM
# [8] = cited from earlier work
# T2 sequence (Q86VL8 1-566 isoform Q86VL8-3): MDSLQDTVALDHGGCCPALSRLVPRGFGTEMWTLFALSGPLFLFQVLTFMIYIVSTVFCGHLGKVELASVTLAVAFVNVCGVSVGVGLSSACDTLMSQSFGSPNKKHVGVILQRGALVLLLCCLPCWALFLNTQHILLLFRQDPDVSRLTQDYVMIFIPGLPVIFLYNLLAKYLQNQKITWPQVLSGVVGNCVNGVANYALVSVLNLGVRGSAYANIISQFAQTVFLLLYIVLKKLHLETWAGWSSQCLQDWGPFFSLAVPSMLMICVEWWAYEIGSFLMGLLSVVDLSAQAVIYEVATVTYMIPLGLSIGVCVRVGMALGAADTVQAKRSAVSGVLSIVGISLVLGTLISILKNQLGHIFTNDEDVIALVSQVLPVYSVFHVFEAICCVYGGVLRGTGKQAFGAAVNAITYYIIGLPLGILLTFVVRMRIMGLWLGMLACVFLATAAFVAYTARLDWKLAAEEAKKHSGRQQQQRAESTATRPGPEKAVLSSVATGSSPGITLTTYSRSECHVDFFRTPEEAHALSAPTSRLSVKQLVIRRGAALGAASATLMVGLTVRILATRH
SMILES,MATE1 substrate* (MATE1 [1]),"MATE1 (MATE1 [1]; 2.5 μM, 1 min)",MATE2 substrate* (MATE2K [2]),"MATE2 (MATE2K [2]; 2.5 μM, 1 min)",OCT1 substrate* (OCT1),OCT2 substrate* (OCT2),"MATE1 ratio (MATE1 [1]; 2.5 μM, 1 min)","MATE2K ratio (MATE2K [2]; 2.5 μM, 1 min)","MATE1 Vmax (MATE1 [6]; HEK293, 1 min, net uptake)","Km (MATE1 [6]; HEK293, 1 min, net uptake) [µM]","MATE2K Vmax (MATE2K [7]; HEK293, 1 min, net uptake)","Km (MATE2K [7]; HEK293, 1 min, net uptake) [µM]",eliminated unchanged via the kidneys ([8]; human),further results
CN[C@@H]1CCc2[nH]c3ccc(C(N)=O)cc3c2C1 [Frovatriptan],,,,,,,34.35,31.50,4568 pmol × mg protein^–1 × min^–1,70.4,869 pmol × mg protein^–1 × min^–1,11.2,,"TS DPH hCMEC (hCMEC [3]): 0.83; TS MDAI hCMEC (hCMEC [4]): 0.88; Substrate specificity among MATE1, MATE2K, OCT1, OCT2 [5]: All four transporters"
NC(N)=Nc1nc(CSCCC(N)=NS(N)(=O)=O)cs1 [Famotidine],,,,,,,,,,,,,more than 70%,
CCN1CCCC1CNC(=O)c1cc(S(N)(=O)=O)ccc1OC (stereo not drawn) [Sulpiride],,,,,,,,,,16,,22.8,,eliminated unchanged via the kidneys ([8]; in vivo): more than 70%; MATE1 Vmax (MATE1 [6]): 851 pmol × mg protein^–1 × min^–1; MATE2K Vmax (MATE2K [7]): 1025 pmol × mg protein^–1 × min^–1
C[C@H]1N=C(N(C)C)N=C(N)N1 [Imeglimin],,,,,,,18.76,4.59,6242 pmol × mg protein^–1 × min^–1,58,2814 pmol × mg protein^–1 × min^–1,81.6,more than 70%,"MATE1 ratio in this study (MATE1 [1]; 2.5 μM, 1 min): 18.76; MATE1 ratio (MATE1 [1]; 2.5 μM, 1 min, listed as imeglimin): above 2; MATE2K ratio in this study (MATE2K [2]; 2.5 μM, 1 min): 4.59"
C=CCN1CCCC1CNC(=O)c1cc2nn[nH]c2cc1OC (stereo not drawn) [Alizapride],,,,,,,3.68,2.64,,,,,more than 70%,"MATE1 ratio (MATE1 [1]; 2.5 μM, 1 min, listed as alizapride): above 2; MATE1 (uptake ratio) (MATE1 [1]; mean ratio of uptake in MATE1-overexpressing HEK293 cells vs empty vector, 2.5 μM, 1 min): 3.68; MATE2 (uptake ratio) (MATE2K [2]; mean ratio of uptake in MATE2K-overexpressing HEK293 cells vs empty vector, 2.5 μM, 1 min): 2.64"

# Continued, in another order:
MATE1 substrate* (MATE1 [1]),"MATE1 (MATE1 [1]; 2.5 μM, 1 min)",MATE2 substrate* (MATE2K [2]),"MATE2 (MATE2K [2]; 2.5 μM, 1 min)",OCT1 substrate* (OCT1),OCT2 substrate* (OCT2),"MATE1 ratio (MATE1 [1]; 2.5 μM, 1 min)","MATE2K ratio (MATE2K [2]; 2.5 μM, 1 min)","MATE1 Vmax (MATE1 [6]; HEK293, 1 min, net uptake)","Km (MATE1 [6]; HEK293, 1 min, net uptake) [µM]","MATE2K Vmax (MATE2K [7]; HEK293, 1 min, net uptake)","Km (MATE2K [7]; HEK293, 1 min, net uptake) [µM]",SMILES,eliminated unchanged via the kidneys ([8]; human),further results
0,1.2,0,1.25,0,0,,,,,,,O=C1Cc2cc(CCN3CCN(c4nsc5ccccc45)CC3)c(Cl)cc2N1 [Ziprasidone],,
,12.98,,1.22,,,above 2,,"10,171 pmol × mg protein^–1 × min^–1",1560,linear,,Nc1ccn([C@H]2CC[C@@H](CO)O2)c(=O)n1 [Zalcitabine],more than 70%,"MATE1 ratio in this study (MATE1 [1]; 2.5 μM, 1 min): 12.98; MATE2K ratio in this study (MATE2K [2]; 2.5 μM, 1 min): 1.22"
1,11.83,1,5.51,1,0,,,2992 pmol × mg protein^–1 × min^–1,,,,CN(C)CCc1c[nH]c2ccc(C[C@H]3COC(=O)N3)cc12 [Zolmitriptan],,
1,12.88,1,6.48,1,1,,,2624 pmol × mg protein^–1 × min^–1,,,,"CN(C)CCc1c[nH]c2ccc(C[C@H]3COC(=O)N3)cc12 [Zolmitriptan (R), Zolmitriptan]",,
